Experiments:
[1] = system: Monochoria vaginalis, Presl.; experiment: Preemergence weed control under flooded paddy conditions, MOOVA (Monochoria); assay type: in vivo; conditions: preemergence, flooded paddy, rated three to four weeks after treatment
[2] = system: Cyperus serotinus, Rottb.; experiment: Preemergence weed control under flooded paddy conditions, CYPSE (Flatsedge); assay type: in vivo; conditions: preemergence, rated three to four weeks after treatment
Sagittaria pygmaea, L. = experiment: Preemergence weed control under flooded paddy conditions, SAGPY (Arrowhead (Pygmaea)); assay type: in vivo; conditions: preemergence, flooded paddy, rated three to four weeks after treatment
[3] = system: Echinochloa oryzoides (Ard.) Fritsch.; experiment: Preemergence weed control under flooded paddy conditions, ECHORC (Watergrass (Calif.)); assay type: in vivo; conditions: preemergence, flooded paddy, rated three to four weeks after treatment
Cyperus iria = experiment: Preemergence weed control under flooded paddy conditions, CYPIR (Rice Flatsedge); assay type: in vivo; conditions: preemergence, flooded paddy, rated three to four weeks after treatment
[4] = system: Oryza sativa, (L.) Tebonnet; experiment: Rice tolerance to post-transplant applications under flooded paddy conditions (Example 187), ORYSAT (Rice, Tebonnet); conditions: rated three to four weeks after treatment
Further: meaning of each grade not given here.

SMILES	herbicidal effect rating, MOOVA ([1]; Rate 0.1250 kg/ha)	herbicidal effect rating, MOOVA ([1]; Rate 0.2500 kg/ha)	herbicidal effect rating, CYPSE ([2]; Rate 0.0320 kg/ha)	herbicidal effect rating, CYPSE ([2]; Rate 0.1250 kg/ha)	herbicidal effect rating, SAGPY (Sagittaria pygmaea, L.; Rate 0.0320 kg/ha)	herbicidal effect rating, SAGPY (Sagittaria pygmaea, L.; Rate 0.0620 kg/ha)	herbicidal effect rating, SAGPY (Sagittaria pygmaea, L.; Rate 0.1250 kg/ha)	herbicidal effect rating, SAGPY (Sagittaria pygmaea, L.; Rate 0.2500 kg/ha)	herbicidal effect rating, ECHORC ([3]; Rate 0.0320 kg/ha)	herbicidal effect rating, ECHORC ([3]; Rate 0.0620 kg/ha)	herbicidal effect rating, ECHORC ([3]; Rate 0.1250 kg/ha)	herbicidal effect rating, ECHORC ([3]; Rate 0.2500 kg/ha)	herbicidal effect rating, CYPIR (Cyperus iria; Rate 0.0320 kg/ha)	herbicidal effect rating, CYPIR (Cyperus iria; Rate 0.0620 kg/ha)	herbicidal effect rating, CYPIR (Cyperus iria; Rate 0.1250 kg/ha)	herbicidal effect rating, CYPIR (Cyperus iria; Rate 0.2500 kg/ha)	herbicidal effect rating ORYSAT ([4]; Rate 0.0320 kg/ha)	herbicidal effect rating ORYSAT ([4]; Rate 0.0620 kg/ha)	herbicidal effect rating ORYSAT ([4]; Rate 0.1250 kg/ha)	herbicidal effect rating ORYSAT ([4]; Rate 0.2500 kg/ha)	further results
Cn1c(C(F)(F)F)cc(=O)n(-c2ccc3snc(COCc4ccc(Cl)c(Cl)c4)c3c2)c1=O [Example 586, 2,4(1H,3H)-Pyrimidinedione, 3-{3-{[(3,4-dichlorobenzyl)oxy]methyl}-1,2-benzisothiazol-5-yl}-1-methyl-6-(trifluoromethyl)-]	9.0	9.0	0.0	4.5	0.0	0.0	0.0	0.0	8.0	9.0	9.0	9.0	8.0	8.5	9.0	9.0	1.0	2.0	2.0	2.0	herbicidal effect rating, MOOVA ([1]; Rate 0.0320 kg/ha): 9.0; herbicidal effect rating, MOOVA ([1]; Rate 0.0620 kg/ha): 6.5; herbicidal effect rating, CYPSE ([2]; Rate 0.0620 kg/ha): 0.0; herbicidal effect rating, CYPSE ([2]; Rate 0.2500 kg/ha): 4.5
Cc1cccc(COCc2nsc3ccc(-n4c(=O)cc(C(F)(F)F)n(C)c4=O)cc23)c1 [Example 587, 2,4(1H,3H)-Pyrimidinedione, 1-methyl-3-{3-{[(m-methylbenzyl)oxy]methyl}-1,2-benzisothiazol-5-yl}-6-(trifluoromethyl)-]	9.0	9.0	0.0	0.0	0.0	2.0	5.0	5.0	7.0	7.0	9.0	9.0	4.0	8.0	9.0	9.0	4.0	4.0	4.0	5.0	herbicidal effect rating, MOOVA ([1]; Rate 0.0320 kg/ha): 5.0; herbicidal effect rating, MOOVA ([1]; Rate 0.0620 kg/ha): 5.0
Cn1c(C(F)(F)F)cc(=O)n(-c2ccc3snc(COCc4cccc([N+](=O)[O-])c4)c3c2)c1=O [Example 588, 2,4(1H,3H)-Pyrimidinedione, 1-methyl-3-{3-{[(m-nitrobenzyl)oxy]methyl}-1,2-benzisothiazol-5-yl}-6-(trifluoromethyl)-]	7.0	8.0	0.0	5.0	0.0	0.0	0.0	0.0	4.0	7.0	9.0	7.0	0.0	2.0	6.0	6.0	0.0	3.0	3.0	3.0	herbicidal effect rating, CYPSE ([2]; Rate 0.0620 kg/ha): 0.0; herbicidal effect rating, CYPSE ([2]; Rate 0.2500 kg/ha): 5.0

Source: EP0908457B1, “3-(1,2-benzisothiazol- and isoxazol-5-Y1)-2,4(1H,3H)-pyrimidinedione or thione and 3-(1,2-benzisothiazol- and isoxazol-5-y1)-4(3H)-pyrimidinone or thione herbicidal agents” (BASF AKTIENGESELLSCHAFT, priority 1997, dated 1999)
